Test results as given in PubChem BioAssay (NCI).
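A five-concentration, 48-hour dose response in 96-well plates underlies each endpoint, interpolated linearly between surrounding concentrations. GI50 marks 50% less growth. TGI denotes the concentration required for complete inhibition of growth.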

How the values were obtained:
Experiment in all cases: NCI-60 cell line screen, 48 h
EKVX NSCLC = system: EKVX NSCLC
SF-539 CNS = system: SF-539 CNS
U251 CNS = system: U251 CNS
NCI-H460 lung = system: NCI-H460 lung
SF-295 CNS = system: SF-295 CNS
NCI-H522 lung = system: NCI-H522 lung
SF-268 CNS = system: SF-268 CNS
SNB-19 CNS = system: SNB-19 CNS
OVCAR-8 ovarian = system: OVCAR-8 ovarian

Compound | GI50 (EKVX NSCLC) | TGI (EKVX NSCLC) | GI50 (SF-539 CNS) | TGI (SF-539 CNS) | GI50 (U251 CNS) | TGI (U251 CNS) | GI50 (NCI-H460 lung) | TGI (NCI-H460 lung) | GI50 (SF-295 CNS) | TGI (SF-295 CNS) | GI50 (NCI-H522 lung) | TGI (NCI-H522 lung) | GI50 (SF-268 CNS) | TGI (SF-268 CNS) | GI50 (SNB-19 CNS) | TGI (SNB-19 CNS) | GI50 (OVCAR-8 ovarian) | TGI (OVCAR-8 ovarian)
CCc1cccc(C)c1NC(=O)c1sc2nc3c(cc2c1N)CCCCC3 | 4.17 µM | > 100 µM | 2.29 µM | 8.21 µM | 3.62 µM | 80.9 µM | 3.52 µM | 26.6 µM | 3.05 µM | > 100 µM | 2.78 µM | 41.9 µM | 7.69 µM | > 100 µM | 4.07 µM | > 100 µM | 3.72 µM | > 100 µM
CC(=O)[CH-]C(C)=O.CC(=O)[CH-]C(C)=O.[CH2-]CCC.[CH2-]CCC.[Sn+4] | 0.901 µM | 2.27 µM | 0.61 µM | 1.91 µM | 0.304 µM | 1.06 µM | 1.39 µM | 2.9 µM | 1.45 µM | 2.8 µM | 0.0586 µM | 0.122 µM | 0.291 µM | 1.2 µM | 0.663 µM | 1.97 µM | 0.788 µM | 2.05 µM
CCCCCC(=O)C(C)C1=Nc2nnc(CCCCCCCc3nnc4n3C(=O)C(C(C)C(=O)CCCCC)=N4)n2C1=O (stereo unspecified) | – | > 100 µM | – | > 100 µM | – | > 100 µM | – | > 100 µM | – | > 100 µM | – | > 100 µM | – | > 100 µM | – | > 100 µM | – | > 100 µM
CCOC(=O)C1N(S(=O)(=O)c2ccc(C)cc2)CCC12c1ccccc1N(C(C)=O)C2c1ccc(OC)c(OC)c1 (stereo unspecified) | – | > 100 µM | – | > 100 µM | – | > 100 µM | – | > 100 µM | – | > 100 µM | – | > 100 µM | – | > 100 µM | – | > 100 µM | – | > 100 µM
COc1ccc(OC)c(/C(C)=N/NC(N)=S)c1 | – | > 100 µM | – | > 100 µM | – | > 100 µM | – | > 100 µM | – | > 100 µM | – | – | – | > 100 µM | – | – | – | > 100 µM
COc1ccc(S(=O)(=O)Nc2ccccc2C(=O)O)cc1 | – | > 100 µM | – | > 100 µM | – | > 100 µM | – | > 100 µM | – | > 100 µM | – | > 100 µM | – | > 100 µM | – | > 100 µM | – | > 100 µM
C=C(COC(C)=O)CC(OC(C)=O)c1ccccc1 (stereo unspecified) | – | > 100 µM | – | > 100 µM | – | > 100 µM | – | > 100 µM | – | > 100 µM | – | > 100 µM | – | > 100 µM | – | > 100 µM | – | > 100 µM
CC1CCC2(CC1)NN=c1s/c(=C\c3ccc(O)cc3)c(=O)n1N2 (stereo unspecified) | – | > 100 µM | – | > 100 µM | – | > 100 µM | – | > 100 µM | – | > 100 µM | – | > 100 µM | – | > 100 µM | – | > 100 µM | – | > 100 µM
CCC[CH2][Sn]1([CH2]CCC)[O]CC(Cc2ccccc2)[O]1 (stereo unspecified) | 2.39 µM | 8.77 µM | 1.87 µM | 4.15 µM | 1.85 µM | 3.91 µM | 11 µM | 23.4 µM | 2.1 µM | 6.3 µM | 0.259 µM | 0.93 µM | – | – | 3.45 µM | 11.7 µM | 2.61 µM | 6.59 µM
C[N-]c1nnnn1C.[Au+].c1ccc([PH+](c2ccccc2)c2ccccc2)cc1 | 4.32 µM | 8.99 µM | 2.38 µM | 7.39 µM | 2.28 µM | 5.56 µM | 8.54 µM | 52.7 µM | 3.47 µM | 12.2 µM | – | – | 3.5 µM | 15.4 µM | 2.25 µM | 6.18 µM | 3.18 µM | 14.2 µM
CC(=O)[O][Ga]([Cl])[O]C(C)=O | – | – | > 100 µM | > 100 µM | > 100 µM | > 100 µM | > 100 µM | > 100 µM | > 100 µM | > 100 µM | > 100 µM | > 100 µM | > 100 µM | > 100 µM | > 100 µM | > 100 µM | > 100 µM | > 100 µM
Cc1[nH]c2ccccc2c1C(=O)CC1(O)C(=O)Nc2ccccc21 (stereo unspecified) | – | > 100 µM | – | > 100 µM | – | > 100 µM | – | > 100 µM | – | > 100 µM | – | – | – | > 100 µM | – | > 100 µM | – | –
COc1ccc2c(CN3CCCCC3CO)cc3cc(OC)c(OC)cc3c2c1 (stereo unspecified) | – | 19.7 µM | – | 15 µM | – | 18.3 µM | – | – | – | 13.6 µM | – | 7.72 µM | – | 20.1 µM | – | 16.5 µM | – | 19.9 µM
c1cc(N(CCn2cccn2)CCn2cccn2)cc(N(CCn2cccn2)CCn2cccn2)c1 | – | > 100 µM | – | – | – | > 100 µM | – | > 100 µM | – | > 100 µM | – | > 100 µM | – | > 100 µM | – | > 100 µM | – | > 100 µM
O=c1nc(/C=C/c2ccccc2Cl)cc2n1CCN2CCO | – | > 100 µM | – | > 100 µM | – | – | – | > 100 µM | – | > 100 µM | – | 47.4 µM | – | > 100 µM | – | – | – | > 100 µM
C=C(c1ccc2nc(NC(=O)OC)[nH]c2c1)c1cccs1 | – | > 100 µM | – | 0.523 µM | – | 7.31 µM | – | > 100 µM | – | 0.934 µM | – | – | – | > 100 µM | – | > 100 µM | – | > 36.4 µM
CCCCCC[N+](C)(C)Cc1ccc(C[N+](C)(C)CCCCCC)cc1 | – | 27.7 µM | – | – | – | 7.28 µM | – | 6.03 µM | – | 10.5 µM | – | – | – | > 100 µM | – | 67.4 µM | – | 7.37 µM
